Assay results as given in patent US20030219456A1, “Method of utilization of zygosaccharomyces rouxii” (priority 2002, published 2003).

Experiments:
Assay type in all cases: biochemical
[1] = DPPH free radical scavenging activity (Example 9); conditions: standard compounds 100 mg/ml in ethyl alcohol
Protocol: The said Sample was washed with ethyl acetate to get organic acids crystallized out. The crystals mainly consisted of succinic acid, which was identified by RI and H-NMR. The remaining magma, called bio-polyphenols (BPP) was tested for its anti-oxidant activity. The BPP was dissolved in ethyl alcohol to get concentrations of 100 mg/ml to 400 mg/ml. Standard compounds of BHA, BHT and vitamin E, which are recognized as strong anti-oxidants, and ZR drink described in Example 4 were also employed for comparison. Concentration of standard compounds in ethyl alcohol was 100 mg/ml each. The assay method to determine the scavenging activity of free radical DPPH was as described below.
Optical density OD was measured at 517 nm at 0 mm and 30 mm after mixing. Percent free radical scavenging activity was calculated as follows.
Percent activity=(Ac 1−(At2−Ab 1)}/Ac2×100,
Where Ac1=of control at 0 mm
Ac2=OD of control at 30 mm

[2] = Peroxide value (POV) activity, modified Rodan's method; conditions: 0.1 g/ml in ethyl alcohol, 0.05 ml; 50° C., 3 days, dark; OD 500 nm
Protocol: Peroxide value (POV) activity was determined by a slightly modified Rodan's method (Terasawa, N., Yamazaki, N., and Fukui Y: Antioxidant activity of water extracts of herbs, Nippon Shokuhin Kagaku Kogaku Kaishi, 48, 2, 99-104, 2001.)
After mixing in a screw-capped test tube, the reaction mass was incubated inside a dark incubator at 50° C. for 3 days. The assay of liberated peroxide compounds was carried out as follows.
After 3 minutes, optical density was measured at 500 nm. Percent POV activity was calculated as follows:
Percent activity=100×(OD of sample or standard/OD of control)

[3] = DPPH free radical scavenging activity (preferred embodiment); conditions: standard compounds 100 mg/ml (0.1 g/ml) in ethyl alcohol; OD 517 nm, 30 min
Protocol: Free radical scavenging activity was then evaluated. Standard solutions (0.1 g/ml in ethyl alcohol) of BHA, BHT and vitamin E were freshly prepared. DPPH scavenging activity was determined as described below. The following observations and results were then recorded: [table] Optical density OD was measured at 517 nm at 0 min and 30 min after mixing. Percent free radical scavenging activity was calculated as follows: Percent activity=100×{Ac1−(At2−Ab1)}/Ac2, Where Ac1=OD of control at 0 min At2=OD of test at 30 min Ab1=OD of blank at 0 min Ac2=OD of control at 30 min

Compound | Percent activity (free radical scavenging) [1] | Percent activity (POV) = 100 x OD of sample or standard / OD of control [2] | Percent activity (free radical scavenging) [3]
COc1ccc(O)c(C(C)(C)C)c1 [BHA] | 83.0% | 8.9% | 83.0%
Cc1cc(C(C)(C)C)c(O)c(C(C)(C)C)c1 [BHT] | 83.4% | 13.5% | 83.4%
vitamin E | 83.0% | 0% | 83.0%
